The values that follow come from US20090317357A1, “Methods for treating or preventing autoimmune disease using histamine h1 receptor-blocking agents” (priority 2003, published 2009).

One assay concerns EAE in SJL (H-2s) mice. Briefly: EAE induced with PLP139-151 in SJL mice, daily i.p. treatment with H1R or PAFR antagonist. Format: in vivo. The note with it: day 13, daily i.p. from day 2 after induction, pyrilamine 0.6 mg/mouse, CV6209 1 μg/mouse, vehicle group 3±0.52.
A further assay has as its system EAE. To be noted: cited: Inaba et al. 1999; Inoue et al. 1996; cited from earlier work.

Protocol for EAE in SJL (H-2s) mice: Modulation of EAE with H1R antagonist and PAFR antagonist. EAE was induced in SJL/J mice with PLP139-151. The H1R antagonist pyrilamine (0.6 mg/mouse; n=8), PAFR antagonist CV6209 (1 μg/mouse; n=8), or vehicle alone (PBS; n=7) were given daily i.p. starting on day 2 after the induction of EAE.
Mice were assessed daily for clinical signs of EAE (see id.). For each mouse, a remission was defined as decrease of the score of at least one point for at least 2 consecutive days. […] In the pharmacological studies, the histamine receptor 1 antagonist, pyrilamine (Sigma, St Louis, Mo.) and the PAF antagonist, CV6209 (Biomol, Plymouth Meeting, Pa.) were injected daily i.p. in PBS starting 2 days after the induction of EAE.
We targeted pharmacologically PAF and histamine, the main vasoactive mediators of murine anaphylaxis, and evaluated the development of EAE. EAE was induced in SJL (H-2s) mice with PLP139-151 and on the second day after the induction of the disease we started a daily i.p. treatment with the PAFR antagonist CV 6209, or with the H1R antagonist pyrilamine.

As to `CCCCCCCCCCCCCCCCCCNC(=O)OCC(COC(=O)N(Cc1cccc[n+]1CC)C(C)=O)OC` (stereo not shown) [CV 6209], the “mean EAE score” value in the assay on EAE in SJL (H-2s) mice came out at 0.71±0.36.
Same read-out and setting: to `COc1ccc(CN(CCN(C)C)c2ccccn2)cc1` [pyrilamine] belongs 0.57±0.2.
For the compound batroxobin, the “effect on EAE” value with EAE is given as “ameliorate EAE”.
On to dermatan sulfate, for which, in the assay with EAE, the “effect on EAE” value is listed as “ameliorate EAE”.
